Measurements: the supplement of paper PMC10920090

Key:
MDA-MB-231 [1] = test: drug sensitivity score (DSS), cytotoxicity CellTox Green; higher = more cytotoxic; extreme values may be limits of the assay; settings: 72 h
MDA-MB-231 [2] = test: drug sensitivity score (DSS), cell viability CellTiter-Glo; higher = more sensitive; extreme values may be limits of the assay; settings: 72 h
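Throughout, for drug sensitivity score (DSS), cytotoxicity CellTox Green: DSS summarises each dose–response curve by combining IC50, EC50, maximal inhibition and efficacy across drug concentrations.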

## c1cn2cc(-c3ccc4cn[nH]c4c3)nc(Nc3ccc(N4CCOCC4)cc3)c2n1 [Entospletinib]
MDA-MB-231 [1]; shRNA: shPPFIA1_1
  drug sensitivity score: 10.3 DSS
MDA-MB-231 [1]; shRNA: shScramble
  drug sensitivity score: 0 DSS
MDA-MB-231 [2]; shRNA: shPPFIA1_1
  drug sensitivity score: 0.9 DSS
MDA-MB-231 [2]; shRNA: shScramble
  drug sensitivity score: 0 DSS

## CN(c1ncccc1CNc1nc(Nc2ccc3c(c2)CC(=O)N3)ncc1C(F)(F)F)S(C)(=O)=O
MDA-MB-231 [1]; shRNA: shPPFIA1_1
  drug sensitivity score: 2.5 DSS
MDA-MB-231 [1]; shRNA: shScramble
  drug sensitivity score: 1.8 DSS
MDA-MB-231 [2]; shRNA: shPPFIA1_1
  drug sensitivity score: 0.5 DSS
MDA-MB-231 [2]; shRNA: shScramble
  drug sensitivity score: 5.8 DSS

## CC(=O)OC[C@H]1O[C@@H]([S-])[C@H](OC(C)=O)[C@@H](OC(C)=O)[C@@H]1OC(C)=O.CCP(CC)CC.[Au+] [Auranofin]
MDA-MB-231 [1]; shRNA: shPPFIA1_1
  drug sensitivity score: 0 DSS
MDA-MB-231 [1]; shRNA: shScramble
  drug sensitivity score: 0.4 DSS
MDA-MB-231 [2]; shRNA: shPPFIA1_1
  drug sensitivity score: 3.2 DSS
MDA-MB-231 [2]; shRNA: shScramble
  drug sensitivity score: 4.2 DSS

## CCc1cc(Nc2nccc(-c3c(-c4ccc(OC)c(C(=O)Nc5c(F)cccc5F)c4)nc4ccccn34)n2)c(OC)cc1N1CCC(N2CCN(S(C)(=O)=O)CC2)CC1
MDA-MB-231 [1]; shRNA: shPPFIA1_1
  drug sensitivity score: 0 DSS
MDA-MB-231 [1]; shRNA: shScramble
  drug sensitivity score: 0 DSS
MDA-MB-231 [2]; shRNA: shPPFIA1_1
  drug sensitivity score: 2.9 DSS
MDA-MB-231 [2]; shRNA: shScramble
  drug sensitivity score: 2.4 DSS

## CC[C@H](Nc1ncnc2[nH]cnc12)c1nc2cccc(F)c2c(=O)n1-c1ccccc1 [Idelalisib]
MDA-MB-231 [1]; shRNA: shPPFIA1_1
  drug sensitivity score: 0 DSS
MDA-MB-231 [1]; shRNA: shScramble
  drug sensitivity score: 0 DSS
MDA-MB-231 [2]; shRNA: shPPFIA1_1
  drug sensitivity score: 0 DSS
MDA-MB-231 [2]; shRNA: shScramble
  drug sensitivity score: 0.9 DSS

## Cn1ncc(Cl)c1-c1cc(C(=O)N[C@H](CN)Cc2ccc(F)c(F)c2)oc1Cl [Uprosertib]
MDA-MB-231 [1]; shRNA: shPPFIA1_1
  drug sensitivity score: 0 DSS
MDA-MB-231 [1]; shRNA: shScramble
  drug sensitivity score: 0 DSS
MDA-MB-231 [2]; shRNA: shPPFIA1_1
  drug sensitivity score: 0 DSS
MDA-MB-231 [2]; shRNA: shScramble
  drug sensitivity score: 0 DSS

## CCNC(=O)CCC/C=C\C[C@@H]1[C@@H](/C=C/[C@@H](O)CCc2ccccc2)[C@H](O)C[C@@H]1O [Bimatoprost]
MDA-MB-231 [1]; shRNA: shPPFIA1_1
  drug sensitivity score: 0 DSS
MDA-MB-231 [1]; shRNA: shScramble
  drug sensitivity score: 0 DSS
MDA-MB-231 [2]; shRNA: shPPFIA1_1
  drug sensitivity score: 0 DSS
MDA-MB-231 [2]; shRNA: shScramble
  drug sensitivity score: 0 DSS

## Cc1cc(Nc2ncc(Cl)c(Nc3ccccc3S(=O)(=O)C(C)C)n2)c(OC(C)C)cc1C1CCNCC1 [Ceritinib]
MDA-MB-231 [1]; shRNA: shPPFIA1_1
  drug sensitivity score: 0.9 DSS
MDA-MB-231 [1]; shRNA: shScramble
  drug sensitivity score: 0 DSS
MDA-MB-231 [2]; shRNA: shPPFIA1_1
  drug sensitivity score: 0 DSS
MDA-MB-231 [2]; shRNA: shScramble
  drug sensitivity score: 1.2 DSS

## CN(N=O)C(=O)N[C@@H](C=O)[C@@H](O)[C@H](O)[C@H](O)CO [Streptozocin]
MDA-MB-231 [1]; shRNA: shPPFIA1_1
  drug sensitivity score: 0 DSS
MDA-MB-231 [1]; shRNA: shScramble
  drug sensitivity score: 0 DSS
MDA-MB-231 [2]; shRNA: shPPFIA1_1
  drug sensitivity score: 0.1 DSS
MDA-MB-231 [2]; shRNA: shScramble
  drug sensitivity score: 0.3 DSS

## CN1CC[C@@H](NC(=O)Nc2ccc(C#N)cc2)C[C@@H]1c1nc2ccccc2[nH]1 [Glasdegib]
MDA-MB-231 [1]; shRNA: shPPFIA1_1
  drug sensitivity score: 0 DSS
MDA-MB-231 [1]; shRNA: shScramble
  drug sensitivity score: 0 DSS
MDA-MB-231 [2]; shRNA: shPPFIA1_1
  drug sensitivity score: 0 DSS
MDA-MB-231 [2]; shRNA: shScramble
  drug sensitivity score: 0 DSS

## COc1cc([C@@H]2c3cc4c(cc3[C@@H](O[C@@H]3O[C@@H]5CO[C@@H](C)O[C@H]5[C@H](O)[C@H]3O)[C@H]3COC(=O)[C@H]23)OCO4)cc(OC)c1O [Etoposide]
MDA-MB-231 [1]; shRNA: shPPFIA1_1
  drug sensitivity score: 1.6 DSS
MDA-MB-231 [1]; shRNA: shScramble
  drug sensitivity score: 1.8 DSS
MDA-MB-231 [2]; shRNA: shPPFIA1_1
  drug sensitivity score: 0 DSS
MDA-MB-231 [2]; shRNA: shScramble
  drug sensitivity score: 2 DSS

## CNCc1ccc(-c2[nH]c3cc(F)cc4c3c2CCNC4=O)cc1 [Rucaparib]
MDA-MB-231 [1]; shRNA: shPPFIA1_1
  drug sensitivity score: 0 DSS
MDA-MB-231 [1]; shRNA: shScramble
  drug sensitivity score: 0 DSS
MDA-MB-231 [2]; shRNA: shPPFIA1_1
  drug sensitivity score: 0 DSS
MDA-MB-231 [2]; shRNA: shScramble
  drug sensitivity score: 0 DSS

## O=C(O)CC[C@H]1CC[C@@](c2cc(F)ccc2F)(S(=O)(=O)c2ccc(Cl)cc2)CC1 [MK-0752]
MDA-MB-231 [1]; shRNA: shPPFIA1_1
  drug sensitivity score: 0 DSS
MDA-MB-231 [1]; shRNA: shScramble
  drug sensitivity score: 0 DSS
MDA-MB-231 [2]; shRNA: shPPFIA1_1
  drug sensitivity score: 0 DSS
MDA-MB-231 [2]; shRNA: shScramble
  drug sensitivity score: 0.2 DSS

## NC[C@@](O)(c1ccc(Cl)cc1)c1ccc(-c2cn[nH]c2)cc1
MDA-MB-231 [1]; shRNA: shPPFIA1_1
  drug sensitivity score: 7.8 DSS
MDA-MB-231 [1]; shRNA: shScramble
  drug sensitivity score: 7.6 DSS
MDA-MB-231 [2]; shRNA: shPPFIA1_1
  drug sensitivity score: 3 DSS
MDA-MB-231 [2]; shRNA: shScramble
  drug sensitivity score: 6 DSS

## CNC(=O)c1cc(Oc2ccc(NC(=O)Nc3ccc(Cl)c(C(F)(F)F)c3)c(F)c2)ccn1 [Regorafenib]
MDA-MB-231 [1]; shRNA: shPPFIA1_1
  drug sensitivity score: 8.2 DSS
MDA-MB-231 [1]; shRNA: shScramble
  drug sensitivity score: 4.3 DSS
MDA-MB-231 [2]; shRNA: shPPFIA1_1
  drug sensitivity score: 3.6 DSS
MDA-MB-231 [2]; shRNA: shScramble
  drug sensitivity score: 7 DSS

## CC(C)Oc1cc(Nc2nc(N[C@@H](C)c3ccc(F)cn3)ncc2Cl)n[nH]1 [AZ-23]
MDA-MB-231 [1]; shRNA: shPPFIA1_1
  drug sensitivity score: 0 DSS
MDA-MB-231 [1]; shRNA: shScramble
  drug sensitivity score: 1 DSS
MDA-MB-231 [2]; shRNA: shPPFIA1_1
  drug sensitivity score: 0 DSS
MDA-MB-231 [2]; shRNA: shScramble
  drug sensitivity score: 0 DSS

## Cc1ccc(C(=O)N(CCCN)[C@@H](c2oc3cc(Cl)ccc3c(=O)c2Cc2ccccc2)C(C)C)cc1
MDA-MB-231 [1]; shRNA: shPPFIA1_1
  drug sensitivity score: 9.8 DSS
MDA-MB-231 [1]; shRNA: shScramble
  drug sensitivity score: 8.7 DSS
MDA-MB-231 [2]; shRNA: shPPFIA1_1
  drug sensitivity score: 0 DSS
MDA-MB-231 [2]; shRNA: shScramble
  drug sensitivity score: 6.3 DSS

## NC(=O)NO [Hydroxyurea]
MDA-MB-231 [1]; shRNA: shPPFIA1_1
  drug sensitivity score: 0 DSS
MDA-MB-231 [1]; shRNA: shScramble
  drug sensitivity score: 0 DSS
MDA-MB-231 [2]; shRNA: shPPFIA1_1
  drug sensitivity score: 0 DSS
MDA-MB-231 [2]; shRNA: shScramble
  drug sensitivity score: 0 DSS

## CNC(=O)c1cc(Oc2ccc(NC(=O)Nc3ccc(Cl)c(C(F)(F)F)c3)cc2)ccn1 [Sorafenib]
MDA-MB-231 [1]; shRNA: shPPFIA1_1
  drug sensitivity score: 0 DSS
MDA-MB-231 [1]; shRNA: shScramble
  drug sensitivity score: 0 DSS
MDA-MB-231 [2]; shRNA: shPPFIA1_1
  drug sensitivity score: 0 DSS
MDA-MB-231 [2]; shRNA: shScramble
  drug sensitivity score: 0 DSS

## Cc1cc2c(C(=O)NC[C@H](C)c3ccccc3)c(O)c(O)cc2c(O)c1-c1c(C)cc2c(C(=O)NC[C@H](C)c3ccccc3)c(O)c(O)cc2c1O [Sabutoclax]
MDA-MB-231 [1]; shRNA: shPPFIA1_1
  drug sensitivity score: 11.4 DSS
MDA-MB-231 [1]; shRNA: shScramble
  drug sensitivity score: 5.6 DSS
MDA-MB-231 [2]; shRNA: shPPFIA1_1
  drug sensitivity score: 11.8 DSS
MDA-MB-231 [2]; shRNA: shScramble
  drug sensitivity score: 13.6 DSS

## C[C@@H](Oc1cc(-n2cnc3ccc(CN4CCN(C)CC4)cc32)sc1C(N)=O)c1ccccc1C(F)(F)F
MDA-MB-231 [1]; shRNA: shPPFIA1_1
  drug sensitivity score: 10 DSS
MDA-MB-231 [1]; shRNA: shScramble
  drug sensitivity score: 7 DSS
MDA-MB-231 [2]; shRNA: shPPFIA1_1
  drug sensitivity score: 1.5 DSS
MDA-MB-231 [2]; shRNA: shScramble
  drug sensitivity score: 5.2 DSS

## Oc1nc(-c2ccc(C(F)(F)F)cc2)nc2c1CSCC2 [XAV-939]
MDA-MB-231 [1]; shRNA: shPPFIA1_1
  drug sensitivity score: 1.2 DSS
MDA-MB-231 [1]; shRNA: shScramble
  drug sensitivity score: 0 DSS
MDA-MB-231 [2]; shRNA: shPPFIA1_1
  drug sensitivity score: 1.6 DSS
MDA-MB-231 [2]; shRNA: shScramble
  drug sensitivity score: 0.5 DSS

## Cc1c(Cn2c(C)nc3c(C(=O)O)cc(N4CCOCC4)cc32)cccc1C(F)(F)F
MDA-MB-231 [1]; shRNA: shPPFIA1_1
  drug sensitivity score: 0 DSS
MDA-MB-231 [1]; shRNA: shScramble
  drug sensitivity score: 0 DSS
MDA-MB-231 [2]; shRNA: shPPFIA1_1
  drug sensitivity score: 3.6 DSS
MDA-MB-231 [2]; shRNA: shScramble
  drug sensitivity score: 2.8 DSS

## CCn1c(=O)c(-c2ccc(Cl)cc2Cl)cc2cnc(Nc3ccc(N4CCNCC4)c(F)c3)nc21 [FRAX486]
MDA-MB-231 [1]; shRNA: shPPFIA1_1
  drug sensitivity score: 0 DSS
MDA-MB-231 [1]; shRNA: shScramble
  drug sensitivity score: 0 DSS
MDA-MB-231 [2]; shRNA: shPPFIA1_1
  drug sensitivity score: 0 DSS
MDA-MB-231 [2]; shRNA: shScramble
  drug sensitivity score: 2.8 DSS

## O=C(CCCCCCC(=O)Nc1ccc([C@H]2O[C@@H](CSc3nc(-c4ccccc4)c(-c4ccccc4)o3)C[C@@H](c3ccc(CO)cc3)O2)cc1)NO [Tubacin]
MDA-MB-231 [1]; shRNA: shPPFIA1_1
  drug sensitivity score: 7.2 DSS
MDA-MB-231 [1]; shRNA: shScramble
  drug sensitivity score: 2.2 DSS
MDA-MB-231 [2]; shRNA: shPPFIA1_1
  drug sensitivity score: 7.3 DSS
MDA-MB-231 [2]; shRNA: shScramble
  drug sensitivity score: 5 DSS
